Patent publication US20250034147A1, “MDM2 DEGRADERS AND USES THEREOF” (Kymera Therapeutics, Inc., priority 2021, published 2025)
pIC50: −log10 of the molar value.

System: RS411 cells
Test: Cell Viability CTG Assay
Assay type: cell-based
Conditions: Homo sapiens, RS4-11, CellTiter Glo (CTG) cell viability, read-out: Average external-IC50
Experimental: Compounds or DMSO 60 nL were stamped to the cell plate as the platemap. RS411 cells were centrifuged at 800 rpm for 5 min, suspended with culture medium, and counted with Countess (Invitrogen). The cell density was adjusted to the recommend information. 30 μL of cell solution (1000 cells/well) was added to the assay plate as the platemap and 30 μL of media was added to column 2 and column 23 as the platemap. The plate was spun down briefly. The final concentration of the compounds started at 10 μM (3 fold dilution and 11 doses) and final DMSO concentration was 0.2%. The plate was spun down briefly and incubated at 37° C., 5% CO2 for 1 day. […] 30 μL CellTiter Glo reagent was added to each well and the plate was centrifuged at 1000 rpm for 30 sec. The plate was shaken for 1 min and centrifuged at 1000 rpm for 30 sec. The plate was incubated at RT for 10 min to stabilize the luminescent signal and the luminescence was read by EnVision.
The letter codes for IC50 indicate the concentration of compound required to affect 50% of cells: A (<0.005 μM), B (0.005-0.05 μM), C (0.05-0.5 μM), and D (>0.5 μM).

| pIC50 | Structure (SMILES) |
| --- | --- |
| 7.30 to 8.30 | Cn1c(=O)n(C2CCC(=O)NC2=O)c2ccc(C#CC3CCN(C[C@H]4CC[C@H](NC(=O)[C@@H]5NC6(CCCCC6)[C@@]6(C(=O)Nc7cc(Cl)ccc76)[C@H]5c5cccc(Cl)c5F)CC4)C(=O)C3)cc21 (stereo partly shown) [I-46] |
| 7.30 to 8.30 | CN1C(=O)CCC(n2c(=O)n(C)c3cc(C4CCN(C[C@H]5CC[C@H](NC(=O)[C@@H]6NC7(CCCCC7)[C@@]7(C(=O)Nc8cc(Cl)ccc87)[C@H]6c6cccc(Cl)c6F)CC5)CC4)ccc32)C1=O (stereo partly shown) [I-101] |

Further lines, the compound ahead of its results:

| Structure (SMILES) | pIC50 |
| --- | --- |
| Cn1c(=O)n(C2CCC(=O)NC2=O)c2ccc(CCN3CCN(C(=O)[C@@H]4CC[C@@H](NC(=O)[C@@H]5NC6(CCCCC6)[C@@]6(C(=O)Nc7cc(Cl)ccc76)[C@H]5c5cccc(Cl)c5F)CO4)CC3)cc21 (stereo partly shown) [I-41] | > 8.30 |
| Cn1c(=O)n(C2CCC(=O)NC2=O)c2ccc(N3CC4(CCN(C(=O)[C@H]5CC[C@H](NC(=O)[C@@H]6NC7(CCCCC7)[C@@]7(C(=O)Nc8cc(Cl)ccc87)[C@H]6c6cccc(Cl)c6F)CC5)CC4)C3)cc21 (stereo partly shown) [I-86] | > 8.30 |
| Cn1c(=O)n(C2CCC(=O)NC2=O)c2ccc(CN3CCC(OC4CN(C(=O)[C@H]5CC[C@H](NC(=O)[C@@H]6NC7(CCCCC7)[C@@]7(C(=O)Nc8cc(Cl)ccc87)[C@H]6c6cccc(Cl)c6F)CC5)C4)CC3)cc21 (stereo partly shown) [I-23] | > 8.30 |
| COc1cc2c(cc1OC(C)C)[C@H](c1ccc(Cl)cc1)N(c1ccc(N(C)C[C@H]3CC[C@H](N(CCS(C)(=O)=O)C(=O)CCCCc4ccc5c(c4)n(C)c(=O)n5C4CCC(=O)NC4=O)CC3)cc1)C(=O)C2 (stereo partly shown) [I-6] | > 8.30 |
| Cn1c(=O)n(C2CCC(=O)NC2=O)c2ccc(C#CC3CCN(C(=O)[C@@H]4CC[C@@H](NC(=O)[C@@H]5NC6(CCC(C)(C)CC6)[C@@]6(C(=O)Nc7cc(Cl)ccc76)[C@H]5c5cccc(Cl)c5F)CO4)CC3)cc21 (stereo partly shown) [I-36] | > 8.30 |
| COc1cc2c(cc1OC(C)C)[C@H](c1ccc(Cl)cc1)N(c1ccc(N(C)CC3CCN(CCCc4ccc5c(c4)n(C)c(=O)n5C4CCC(=O)NC4=O)C(=O)C3)cc1)C(=O)C2 (stereo partly shown) [I-68] | > 8.30 |
| COC(=O)C1(c2ccc3c(c2)n(C)c(=O)n3C2CCC(=O)NC2=O)CCN(C(=O)[C@H]2CC[C@H](NC(=O)[C@@H]3NC4(CCCCC4)[C@@]4(C(=O)Nc5cc(Cl)ccc54)[C@H]3c3cccc(Cl)c3F)CC2)CC1 (stereo partly drawn) [I-102, methyl 1-((1R,4r)-4-((3′R,4′S,5′R)-6″-chloro-4′-(3-chloro-2-fluorophenyl)-2″-oxodispiro[cyclohexane-1,2′-pyrrolidine-3′,3″-indoline]-5′-carboxamido)cyclohexane-1-carbonyl)-4-(1-(2,6-dioxopiperidin-3-yl)-3-methyl-2-oxo-2,3-dihydro-1H-benzo[d]imidazol-5-yl)piperidine-4-carboxylate] | > 8.30 |
| Cn1c(=O)n(C2CCC(=O)NC2=O)c2ccc(CCCS(=O)(=O)NC(=O)[C@H]3CC[C@H](NC(=O)[C@@H]4NC5(CCCCC5)[C@@]5(C(=O)Nc6cc(Cl)ccc65)[C@H]4c4cccc(Cl)c4F)CC3)cc21 (stereo partly shown) [I-100] | 6.30 to 7.30 |
| Cn1c(=O)n(C2CCC(=O)NC2=O)c2ccc(C3(C(=O)O)CCN(C(=O)[C@H]4CC[C@H](NC(=O)[C@@H]5NC6(CCCCC6)C6(C(=O)Nc7cc(Cl)ccc76)[C@H]5c5cccc(Cl)c5F)CC4)CC3)cc21 (stereo partly drawn) [I-84, 1-((1R,4r)-4-((3′R,4′S,5′R)-6″-chloro-4′-(3-chloro-2-fluorophenyl)-2″-oxodispiro[cyclohexane-1,2′-pyrrolidine-3′,3″-indoline]-5′-carboxamido)cyclohexane-1-carbonyl)-4-(1-(2,6-dioxopiperidin-3-yl)-3-methyl-2-oxo-2,3-dihydro-1H-benzo[d]imidazol-5-yl)piperidine-4-carboxylic acid] | 6.30 to 7.30 |

Target: T1, HiBiT-tagged MDM2 (Homo sapiens, UniProt Q00987)
T1 construct: expressed in transfected cells
Test: MDM2 HiBit HEK293T degradation
Assay type: cell-based
Conditions: HEK293T cells stably expressing C-terminally HiBiT-tagged MDM2; 4 h; read-out: MDM2 HiBit HEK293T degradation 4 h: Average external-Abs DC50
Experimental: HEK293T cells were grown overnight to 70-80% confluency in a 6-well plate in complete media (DMEM 10% FBS) in a 37° C. incubator with 5% CO2. Cells were transfected with 1 micrograms of C- or N-terminally HiBiT-tagged MDM2 constructs using Fugene 6 transfection reagent (Promega) as per manufacturer protocol. After overnight incubation at 37° C., growth media within the wells was replaced with selection media (DMEM+10% FBS+1 microgram/ml final concentration of Puromycin). Puromycin (selection antibiotic) concentrations required for complete cell kill were determined previously. Cells were monitored for the next 48h-96h to select for positively transfected cells. Surviving colonies were pooled and expanded in selection media. Expanded pools of HEK293T cells stably expressing C- and N-terminally HiBiT-tagged MDM2, were characterized using a MDM2 tool degrader and HaloPROTAC3 as positive control. HEK293T cells expressing C-terminally HiBiT-tagged MDM2 were subsequently used for assessment of degradation potencies for MDM2 degraders.
The letter codes for MDM2 degradation potency (DC50) include: A (<10 nM), B […], C (>100-1000 nM), and D (>1000 nM).

T1 sequence (Q00987 whole entry): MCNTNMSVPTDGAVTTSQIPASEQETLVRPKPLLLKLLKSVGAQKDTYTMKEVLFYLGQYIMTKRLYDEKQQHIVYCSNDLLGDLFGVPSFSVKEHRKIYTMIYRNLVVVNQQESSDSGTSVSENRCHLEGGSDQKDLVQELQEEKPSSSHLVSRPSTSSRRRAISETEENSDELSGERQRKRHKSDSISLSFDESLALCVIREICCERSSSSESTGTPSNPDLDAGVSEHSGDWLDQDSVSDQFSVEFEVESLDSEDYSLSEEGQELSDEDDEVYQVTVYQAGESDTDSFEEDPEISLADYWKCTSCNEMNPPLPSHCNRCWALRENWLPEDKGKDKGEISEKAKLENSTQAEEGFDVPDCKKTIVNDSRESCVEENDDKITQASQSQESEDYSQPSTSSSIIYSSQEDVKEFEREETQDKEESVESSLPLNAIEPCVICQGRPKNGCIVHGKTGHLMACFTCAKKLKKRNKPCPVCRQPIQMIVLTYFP

| DC50 [nM] | Structure (SMILES) |
| --- | --- |
| < 10 | Cn1c(=O)n(C2CCC(=O)NC2=O)c2ccc(C#CC3CCN(C[C@H]4CC[C@H](NC(=O)[C@@H]5NC6(CCCCC6)[C@@]6(C(=O)Nc7cc(Cl)ccc76)[C@H]5c5cccc(Cl)c5F)CC4)C(=O)C3)cc21 (stereo partly shown) [I-46] |
| < 10 | Cn1c(=O)n(C2CCC(=O)NC2=O)c2ccc(C3(O)CCN(C[C@H]4CC[C@H](NC(=O)[C@@H]5NC6(CCCCC6)[C@@]6(C(=O)Nc7cc(Cl)ccc76)[C@H]5c5cccc(Cl)c5F)CC4)CC3)cc21 (stereo partly shown) [I-194] |
| < 10 | Cn1c(=O)n(C2CCC(=O)NC2=O)c2ccc(C3CCN(CCN4CCN(C[C@H]5CC[C@H](NC(=O)[C@@H]6NC7(CCCCC7)[C@@]7(C(=O)Nc8cc(Cl)ccc87)[C@H]6c6cccc(Cl)c6F)CC5)[C@H](C(=O)O)C4)CC3)cc21 (stereo partly shown) [I-227] |
| 10 to 100 | O=C(O)Cn1c(=O)n(C2CCC(=O)NC2=O)c2ccc(C3CCN(C[C@H]4CC[C@H](NC(=O)[C@@H]5NC6(CCCCC6)[C@@]6(C(=O)Nc7cc(Cl)ccc76)[C@H]5c5cccc(Cl)c5F)CC4)CC3)cc21 (stereo partly shown) [I-206] |
| < 10 | Cn1c(=O)n(C2CCC(=O)NC2=O)c2ccc([C@H]3CC[C@H](CN4CCC(NC(=O)[C@@H]5NC6(CCCCC6)[C@@]6(C(=O)Nc7cc(Cl)ccc76)[C@H]5c5cccc(Cl)c5F)CC4)CC3)cc21 (stereo partly shown) [I-130] |
| < 10 | Cn1c(=O)n(C2CCC(=O)NC2=O)c2ccc(N3CCN(C(=O)CN4CCC(NC(=O)[C@@H]5NC6(CCCCC6)[C@@]6(C(=O)Nc7cc(Cl)ccc76)[C@H]5c5cccc(Cl)c5F)CC4)CC3)cc21 (stereo partly shown) [I-125] |
| < 10 | Cn1c(=O)n(C2CCC(=O)NC2=O)c2ccc([C@H]3CC[C@H](N4CCC(NC(=O)[C@@H]5NC6(CCCCC6)[C@@]6(C(=O)Nc7cc(Cl)ccc76)[C@H]5c5cccc(Cl)c5F)CC4)CC3)cc21 (stereo partly shown) [I-138] |
| < 10 | Cn1c(=O)n(C2CCC(=O)NC2=O)c2ccc(C3CC4(C3)CN(C[C@H]3CC[C@H](NC(=O)[C@@H]5NC6(CCCCC6)[C@@]6(C(=O)Nc7cc(Cl)ccc76)[C@H]5c5cccc(Cl)c5F)CC3)C4)cc21 (stereo partly shown) [I-123] |

More lines, now with the values behind:

| Structure (SMILES) | DC50 [nM] |
| --- | --- |
| Cn1c(=O)n(C2CCC(=O)NC2=O)c2ccc(CCN3CCN(C(=O)[C@@H]4CC[C@@H](NC(=O)[C@@H]5NC6(CCCCC6)[C@@]6(C(=O)Nc7cc(Cl)ccc76)[C@H]5c5cccc(Cl)c5F)CO4)CC3)cc21 (stereo partly shown) [I-41] | < 10 |
| Cn1c(=O)n(C2CCC(=O)NC2=O)c2ccc(N3CC4(CCN(C(=O)[C@H]5CC[C@H](NC(=O)[C@@H]6NC7(CCCCC7)[C@@]7(C(=O)Nc8cc(Cl)ccc87)[C@H]6c6cccc(Cl)c6F)CC5)CC4)C3)cc21 (stereo partly shown) [I-86] | < 10 |
| Cn1c(=O)n(C2CCC(=O)NC2=O)c2ccc(CN3CCC(OC4CN(C(=O)[C@H]5CC[C@H](NC(=O)[C@@H]6NC7(CCCCC7)[C@@]7(C(=O)Nc8cc(Cl)ccc87)[C@H]6c6cccc(Cl)c6F)CC5)C4)CC3)cc21 (stereo partly shown) [I-23] | < 10 |
| COc1cc2c(cc1OC(C)C)[C@H](c1ccc(Cl)cc1)N(c1ccc(N(C)C[C@H]3CC[C@H](N(CCS(C)(=O)=O)C(=O)CCCCc4ccc5c(c4)n(C)c(=O)n5C4CCC(=O)NC4=O)CC3)cc1)C(=O)C2 (stereo partly shown) [I-6] | 10 to 100 |
| Cn1c(=O)n(C2CCC(=O)NC2=O)c2ccc(N3CCN(C(=O)[C@H]4CC[C@H](NC(=O)[C@@H]5NC6(CCCCC6)[C@@]6(C(=O)Nc7cc(Cl)ccc76)[C@H]5c5cccc(Cl)c5F)CC4)C(C(=O)O)C3)cc21 (stereo partly shown) [I-142] | 10 to 100 |
| Cn1c(=O)n(C2CCC(=O)NC2=O)c2ccc(CCC(=O)N3CCN(C[C@H]4CC[C@H](NC(=O)[C@@H]5NC6(CCCCC6)[C@@]6(C(=O)Nc7cc(Cl)ccc76)[C@H]5c5cccc(Cl)c5F)CC4)CC3)cc21 (stereo partly shown) [I-134] | < 10 |
| Cn1c(=O)n(C2CCC(=O)NC2=O)c2ccc(CCCO[C@@H]3C[C@@H](C(=O)O)N(C(=O)[C@H]4CC[C@H](NC(=O)[C@@H]5NC6(CCCCC6)[C@@]6(C(=O)Nc7cc(Cl)ccc76)[C@H]5c5cccc(Cl)c5F)CC4)C3)cc21 (stereo partly shown) [I-136] | 10 to 100 |
| Cn1c(=O)n(C2CCC(=O)NC2=O)c2ccc(CCCCCN3CCN(C[C@H]4CC[C@H](NC(=O)[C@@H]5NC6(CCCCC6)[C@@]6(C(=O)Nc7cc(Cl)ccc76)[C@H]5c5cccc(Cl)c5F)CC4)[C@@H](C(=O)O)C3)cc21 (stereo partly shown) [I-212] | < 10 |
| Cn1c(=O)n(C2CCC(=O)NC2=O)c2ccc(CCCO[C@@H]3C[C@H](C(=O)O)N(C(=O)[C@H]4CC[C@H](NC(=O)[C@@H]5NC6(CCCCC6)[C@@]6(C(=O)Nc7cc(Cl)ccc76)[C@H]5c5cccc(Cl)c5F)CC4)C3)cc21 (stereo partly shown) [I-141] | 100 to 1000 |
| Cn1c(=O)n(C2CCC(=O)NC2=O)c2ccc(CCCC3(CC(=O)O)CCN(C(=O)[C@H]4CC[C@H](NC(=O)[C@@H]5NC6(CCCCC6)[C@@]6(C(=O)Nc7cc(Cl)ccc76)[C@H]5c5cccc(Cl)c5F)CC4)CC3)cc21 (stereo partly shown) [I-132] | 100 to 1000 |
| Cn1c(=O)n(C2CCC(=O)NC2=O)c2ccc(CN3CCN(CCN4CCC(NC(=O)[C@@H]5NC6(CCCCC6)[C@@]6(C(=O)Nc7cc(Cl)ccc76)[C@H]5c5cccc(Cl)c5F)CC4)CC3)cc21 (stereo partly shown) [I-167] | 10 to 100 |
| Cn1c(=O)n(C2CCC(=O)NC2=O)c2ccc(CCCN3CCN(C[C@H]4CC[C@H](NC(=O)[C@@H]5NC6(CCCCC6)[C@@]6(C(=O)Nc7cc(Cl)ccc76)[C@H]5c5cccc(Cl)c5F)CC4)C[C@H]3C(=O)O)cc21 (stereo partly shown) [I-229] | < 10 |
| Cn1c(=O)n(C2CCC(=O)NC2=O)c2ccc(CN3CCN(CCCN4CCC(NC(=O)[C@@H]5NC6(CCCCC6)[C@@]6(C(=O)Nc7cc(Cl)ccc76)[C@H]5c5cccc(Cl)c5F)CC4)CC3)cc21 (stereo partly shown) [I-147] | 10 to 100 |
| Cn1c(=O)n(C2CCC(=O)NC2=O)c2ccc(CCCN3CCN(C[C@H]4CC[C@H](NC(=O)[C@@H]5NC6(CCCCC6)[C@@]6(C(=O)Nc7cc(Cl)ccc76)[C@H]5c5cccc(Cl)c5F)CC4)[C@@H](C(=O)NS(C)(=O)=O)C3)cc21 (stereo partly shown) [I-222] | < 10 |
| Cn1c(=O)n(C2CCC(=O)NC2=O)c2ccc(CC3(C(=O)O)CCN(C(=O)[C@H]4CC[C@H](NC(=O)[C@@H]5NC6(CCCCC6)[C@@]6(C(=O)Nc7cc(Cl)ccc76)[C@H]5c5cccc(Cl)c5F)CC4)CC3)cc21 (stereo partly shown) [I-131] | 100 to 1000 |
